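Cells were grown in 96-well plates and exposed to each compound for 48 hours at five concentrations; endpoints were interpolated linearly between bracketing concentrations, or set to the highest concentration if not reached. The concentration for 50% growth inhibition is given as GI50.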 The source made the active and inactive calls. Cut-off read from the data, not from the text of the source: active = GI50 up to about 1.1 µM and inactive = higher.
What was measured:
Test in all cases: NCI anticancer screen, dose series, 48 h
HT-29 = tested on: HT-29
MDA-MB-231 = tested on: MDA-MB-231
SN12C = tested on: SN12C
SK-MEL-2 = tested on: SK-MEL-2
A549 = tested on: A549
OVCAR-8 = tested on: OVCAR-8
HL-60 = tested on: HL-60
PC-3 = tested on: PC-3
OVCAR-5 = tested on: OVCAR-5
TK-10 = tested on: TK-10
MCF7 = tested on: MCF7
M14 = tested on: M14
NCI-H522 = tested on: NCI-H522
SK-OV-3 = tested on: SK-OV-3
RPMI-8226 = tested on: RPMI-8226
UO-31 = tested on: UO-31
786-0 = tested on: 786-0
SNB-19 = tested on: SNB-19
HOP-62 = tested on: HOP-62

Measured: GI50

Cc1ccc(-c2cn3c(nc4ccccc43)c(-c3ccccc3)n2)cc1
inactive: HT-29 > 100 µM | MDA-MB-231 > 100 µM | SN12C > 100 µM | SK-MEL-2 18 µM | A549 > 100 µM | OVCAR-8 27.9 µM | HL-60 > 100 µM | PC-3 > 100 µM | OVCAR-5 > 100 µM | TK-10 27.5 µM | MCF7 27.7 µM | M14 > 100 µM | NCI-H522 20.5 µM | SK-OV-3 18.3 µM | RPMI-8226 > 100 µM | UO-31 > 49.1 µM | 786-0 15.1 µM | SNB-19 16.7 µM | HOP-62 15.6 µM

O=C1C(c2c(O)[nH]c3ccc(Br)cc23)=Nc2ccc(Br)cc21
inactive: HT-29 48.4 µM | MDA-MB-231 20 µM | SN12C 45.2 µM | SK-MEL-2 > 100 µM | A549 32.7 µM | OVCAR-8 27.1 µM | HL-60 86.5 µM | PC-3 51.3 µM | OVCAR-5 > 100 µM | TK-10 72.9 µM | MCF7 13.6 µM | M14 97.9 µM | NCI-H522 83 µM | SK-OV-3 28.9 µM | RPMI-8226 > 100 µM | UO-31 > 100 µM | 786-0 24 µM | SNB-19 30.1 µM | HOP-62 42.1 µM

CN1Cc2c(ccc3c2OCO3)[C@@H]2[C@H](O)Cc3cc4c(cc3[C@@H]21)OCO4
inactive: HT-29 2.14 µM | MDA-MB-231 3.29 µM | SN12C 5.06 µM | SK-MEL-2 2.68 µM | A549 4.15 µM | OVCAR-8 3.62 µM | HL-60 1.46 µM | PC-3 2.66 µM | OVCAR-5 12.1 µM | TK-10 5.46 µM | MCF7 2.11 µM | M14 2.2 µM | NCI-H522 2.92 µM | SK-OV-3 3.16 µM | RPMI-8226 4.39 µM | UO-31 6.28 µM | 786-0 4.09 µM | SNB-19 3.41 µM | HOP-62 3.09 µM

CCc1cc(O)c(Cl)c(C)c1Cl
inactive: HT-29 19.2 µM | MDA-MB-231 27 µM | SN12C 15.6 µM | SK-MEL-2 43.3 µM | A549 23.1 µM | OVCAR-8 18.2 µM | HL-60 33.7 µM | PC-3 19.5 µM | OVCAR-5 20.6 µM | TK-10 18.2 µM | MCF7 23.2 µM | M14 18.6 µM | NCI-H522 11.7 µM | SK-OV-3 18.3 µM | RPMI-8226 13.8 µM | UO-31 19.1 µM | 786-0 17.1 µM | SNB-19 30.3 µM | HOP-62 18.7 µM

COc1cc(Nc2nc3ccccc3nc2C(C)C)cc(OC)c1OC
inactive: HT-29 36.4 µM | MDA-MB-231 > 100 µM | SN12C > 100 µM | SK-MEL-2 > 100 µM | A549 > 100 µM | OVCAR-8 73.3 µM | HL-60 > 100 µM | PC-3 > 100 µM | OVCAR-5 > 100 µM | TK-10 > 100 µM | MCF7 > 100 µM | M14 > 100 µM | NCI-H522 81.7 µM | SK-OV-3 > 100 µM | RPMI-8226 83.2 µM | UO-31 > 100 µM | 786-0 > 100 µM | SNB-19 > 100 µM | HOP-62 > 100 µM

c1ccc(C2=NN=C3C(c4ccccc4)=Nc4ccccc4N3C2)cc1
inactive: HT-29 23.3 µM | MDA-MB-231 38.9 µM | SN12C 29.9 µM | SK-MEL-2 23.5 µM | A549 30.6 µM | OVCAR-8 10 µM | HL-60 3.56 µM | PC-3 21.5 µM | OVCAR-5 32.2 µM | TK-10 5.08 µM | MCF7 20 µM | M14 13.7 µM | NCI-H522 3.84 µM | SK-OV-3 53.1 µM | RPMI-8226 9.42 µM | UO-31 7.43 µM | 786-0 11.9 µM | SNB-19 24.2 µM | HOP-62 27 µM
